# Measurements: patent US20240228506A1, “RIPK1 INHIBITORS AND METHODS OF USE” (Merck Sharp & Dohme LLC, priority 2021, published 2024)
# Biological target: T1, GST-RIPK1 (recombinant GST-RIPK1 kinase domain (residues 1-327)) (Homo sapiens, UniProt Q13546)
# T1 construct: recombinant GST-RIPK1 kinase domain (residues 1-327) enzyme; made in house; host or cells: baculovirus-transfected Sf21 insect cells
# T1 sequence (Q13546 1-327): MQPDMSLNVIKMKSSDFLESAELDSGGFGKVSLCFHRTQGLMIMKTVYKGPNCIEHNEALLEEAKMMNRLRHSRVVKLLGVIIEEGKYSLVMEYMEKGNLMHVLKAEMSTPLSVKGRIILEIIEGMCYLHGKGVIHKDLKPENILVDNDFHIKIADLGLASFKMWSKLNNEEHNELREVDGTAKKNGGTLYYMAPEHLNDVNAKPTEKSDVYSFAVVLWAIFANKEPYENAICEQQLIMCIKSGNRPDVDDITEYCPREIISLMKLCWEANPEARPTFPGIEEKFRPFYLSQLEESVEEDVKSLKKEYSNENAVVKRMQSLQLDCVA
# Test: RIPK1-ADP-Glo enzymatic assay
# Format: biochemical
# Details: 25 nM GST-RIPK1, 300 μM ATP, 3 μM dephosphorylated-MBP; 30 minutes pre-incubation, 150 minutes reaction; ten-point titration
# Method in brief: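 Ten-point 1:3 titrations from 100000 nM, 1% DMSO, were preincubated 30 min with 25 nM GST-RIPK1 (1-327) before starting with 300 μM ATP plus 3 μM dephosphorylated MBP; 150 min reaction. ADP-Glo luminescence measured ATP-to-ADP conversion; EC50 by four-parameter sigmoidal regression.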
row,IC50 [µM],SMILES
1,0.047,"CC(C)(C)C(=O)N1C[C@@H]2C[C@H]1c1cncc(C#Cc3ccc(OC(F)(F)F)cc3)c1O2 [Compound 2-37, 2,2-dimethyl-1-((2S,5S)-9-((4-(trifluoromethoxy)phenyl)ethynyl)-2,3-dihydro-2,5-methanopyrido[3,4-f][1,4]oxazepin-4(5H)-yl)propan-1-one]"
2,1.23,"Cc1ncc2c(n1)O[C@H]1C[C@@H]2N(C(=O)C23CCC(F)(CC2)C3)C1 [Compound 3-4, (4-fluorobicyclo[2.2.1]heptan-1-yl)((5S,8S)-2-methyl-7,8-dihydro-5,8-methanopyrimido[5,4-f][1,4]oxazepin-6(5H)-yl)methanone]"
3,0.072,"CC(C)(C(=O)N1C[C@@H]2C[C@H]1c1cncc(C#Cc3cnc4ncnn4c3)c1O2)C(F)F [Compound 2-79, 1-((2S,5S)-9-([1,2,4]triazolo[1,5-a]pyrimidin-6-ylethynyl)-2,3-dihydro-2,5-methanopyrido[3,4-f][1,4]oxazepin-4(5H)-yl)-3,3-difluoro-2,2-dimethylpropan-1-one]"
4,0.167,"C#Cc1cncc2c1O[C@H]1C[C@@H]2N(C(=O)C(C)(C)C(F)F)C1 [Compound 2-32, 1-((2S,5S)-9-Ethynyl-2,3-dihydro-2,5-methanopyrido[3,4-f][1,4]oxazepin-4(5H)-yl)-3,3-difluoro-2,2-dimethylpropan-1-one]"
5,0.124,"O=C(N1C[C@@H]2C[C@H]1c1cncc(Cl)c1O2)C12CCC(C1)C2 [Compound 2-29, bicyclo[2.1.1]hexan-1-yl((2S,5S)-9-chloro-2,3-dihydro-2,5-methanopyrido[3,4-f][1,4]oxazepin-4(5H)-yl)methanone]"
6,0.027,"CC(C)(C(=O)N1C[C@@H]2C[C@H]1c1cncc(C#Cc3cnc4ccnn4c3)c1O2)C(F)F [Compound 2-75, 3,3-difluoro-2,2-dimethyl-1-((2S,5S)-9-(pyrazolo[1,5-a]pyrimidin-6-ylethynyl)-2,3-dihydro-2,5-methanopyrido[3,4-f][1,4]oxazepin-4(5H)-yl)propan-1-one]"
7,0.015,"CC12CCC(C(=O)N3C[C@@H]4C[C@H]3c3cncc(C#N)c3O4)(CC1)C2 [Compound 1-94, (2S,5S)-4-(4-methylbicyclo[2.2.1]heptane-1-carbonyl)-2,3,4,5-tetrahydro-2,5-methanopyrido[3,4-f][1,4]oxazepine-9-carbonitrile]"
8,0.084,"N#Cc1cncc2c1O[C@H]1C[C@@H]2N(C(=O)C23CC(F)(C2)C3)C1 [Compound 1-92, (2S,5S)-4-(3-fluorobicyclo[1.1.1]pentane-1-carbonyl)-2,3,4,5-tetrahydro-2,5-methanopyrido[3,4-f][1,4]oxazepine-9-carbonitrile]"
9,0.032,"CC(C)(C(=O)N1C[C@@H]2C[C@H]1c1cncc(C#Cc3cncnc3)c1O2)C(F)F [Compound 2-45, 3,3-difluoro-2,2-dimethyl-1-((2S,5S)-9-(pyrimidin-5-ylethynyl)-2,3-dihydro-2,5-methanopyrido[3,4-f][1,4]oxazepin-4(5H)-yl)propan-1-one]"
10,0.011,"N#Cc1cncc2c1O[C@H]1C[C@@H]2N(C(=O)C23CCC(CC2)C3)C1 [Compound 1-6, (2S,5S)-4-(bicyclo[2.2.1]heptane-1-carbonyl)-2,3,4,5-tetrahydro-2,5-methanopyrido[3,4-f][1,4]oxazepine-9-carbonitrile]"
11,0.02,"CC(C)(C(=O)N1C[C@@H]2C[C@H]1c1cncc(C#N)c1O2)C(F)(F)F [Compound 1-9, (2S,5S)-4-(3,3,3-trifluoro-2,2-dimethylpropanoyl)-2,3,4,5-tetrahydro-2,5-methanopyrido[3,4-f][1,4]oxazepine-9-carbonitrile]"
12,0.089,"Cc1nnc(C#Cc2cncc3c2O[C@H]2C[C@@H]3N(C(=O)C(C)(C)C(F)F)C2)o1 [Compound 2-71, 3,3-Difluoro-2,2-dimethyl-1-((2S,5S)-9-((5-methyl-1,3,4-oxadiazol-2-yl)ethynyl)-2,3-dihydro-2,5-methanopyrido[3,4-f][1,4]oxazepin-4(5H)-yl)propan-1-one]"
13,0.034,"CC1(C(=O)N2C[C@@H]3C[C@H]2c2cncc(C#Cc4ccc(F)cc4)c2O3)CCCC1 [Compound 2-121, ((2S,5S)-9-((4-Fluorophenyl)ethynyl)-2,3-dihydro-2,5-methanopyrido[3,4-f][1,4]oxazepin-4(5H)-yl)(1-methylcyclopentyl)methanone]"
14,0.033,"N#Cc1cncc2c1O[C@H]1C[C@@H]2N(C(=O)C23CCCC2C3(F)F)C1 (single isomer, unassigned) [Compound 1-86, (2S,5S)-4-((1R,5S or 1S,5R)-6,6-difluorobicyclo[3.1.0]hexane-1-carbonyl)-2,3,4,5-tetrahydro-2,5-methanopyrido[3,4-f][1,4]oxazepine-9-carbonitrile]"
15,0.031,"CC(C)(C(=O)N1C[C@@H]2C[C@H]1c1cncc(C#Cc3ccc(C(F)(F)F)nc3)c1O2)C(F)F [Compound 2-86, 3,3-difluoro-2,2-dimethyl-1-((2S,5S)-9-((6-(trifluoromethyl)pyridin-3-yl)ethynyl)-2,3-dihydro-2,5-methanopyrido[3,4-f][1,4]oxazepin-4(5H)-yl)propan-1-one]"
16,0.483,"CC(C)(CC(F)(F)F)C(=O)N1C[C@@H]2C[C@H]1c1cncc(C#N)c1O2 [Compound 1-35, (2S,5S)-4-(4,4,4-trifluoro-2,2-dimethylbutanoyl)-2,3,4,5-tetrahydro-2,5-methanopyrido[3,4-f][1,4]oxazepine-9-carbonitrile]"
17,0.017,"O=C(N1C[C@@H]2C[C@H]1c1cncc(C#Cc3cccnn3)c1O2)C12CCC(C(F)(F)F)(CC1)C2 [Compound 2-51, ((2S,5S)-9-(pyridazin-3-ylethynyl)-2,3-dihydro-2,5-methanopyrido[3,4-f][1,4]oxazepin-4(5H)-yl)(4-(trifluoromethyl)bicyclo [2.2.1]heptan-1-yl)methanone]"
18,0.074,"CC1(C(=O)N2C[C@@H]3C[C@H]2c2cncc(F)c2O3)CCCC1 [Compound 2-23, ((2S,5S)-9-fluoro-2,3-dihydro-2,5-methanopyrido[3,4-f][1,4]oxazepin-4(5H)-yl)(1-methylcyclopentyl) methanone]"
19,0.047,"CC1(C(=O)N2C[C@@H]3C[C@H]2c2cncc(C#N)c2O3)CCC1 [Compound 1-12, (2S,5S)-4-(1-methylcyclobutane-1-carbonyl)-2,3,4,5-tetrahydro-2,5-methanopyrido[3,4-f][1,4]oxazepine-9-carbonitrile]"
20,0.163,"CC(C)(C)CCC#Cc1cncc2c1O[C@H]1C[C@@H]2N(C(=O)C(C)(C)C(F)F)C1 [Compound 2-108, 1-((2S,5S)-9-(5,5-dimethylhex-1-yn-1-yl)-2,3-dihydro-2,5-methanopyrido[3,4-f][1,4]oxazepin-4(5H)-yl)-3,3-difluoro-2,2-dimethylpropan-1-one]"
21,0.024,CC(C)(C(=O)N1C[C@@H]2C[C@H]1c1cncc(Cl)c1O2)C1CC1 [Compound 2-6]
22,0.021,"CC(F)(F)C(C)(C)C(=O)N1C[C@@H]2C[C@H]1c1cncc(C#N)c1O2 [Compound 1-10, (2S,5S)-4-(3,3-difluoro-2,2-dimethylbutanoyl)-2,3,4,5-tetrahydro-2,5-methanopyrido[3,4-f][1,4]oxazepine-9-carbonitrile]"
23,0.019,"CC(C)(C)c1ncc(C#Cc2cncc3c2O[C@H]2C[C@@H]3N(C(=O)C(C)(C)C(F)F)C2)cn1 [Compound 2-73, 1-((2S,5S)-9-((2-(tert-butyl)pyrimidin-5-yl)ethynyl)-2,3-dihydro-2,5-methanopyrido[3,4-f][1,4]oxazepin-4(5H)-yl)-3,3-difluoro-2,2-dimethylpropan-1-one]"
24,0.332,"COc1cnc(N2CCC(F)(C(=O)N3C[C@@H]4C[C@H]3c3cncc(C#N)c3O4)CC2)nc1 [Compound 1-80, (2S,5S)-4-(4-fluoro-1-(5-methoxypyrimidin-2-yl)piperidine-4-carbonyl)-2,3,4,5-tetrahydro-2,5-methanopyrido[3,4-f][1,4]oxazepine-9-carbonitrile]"
25,0.008,"O=C(N1C[C@@H]2C[C@H]1c1cncc(Cl)c1O2)C12CCC(F)(CC1)C2 [Compound 2-3, ((2S,5S)-9-Chloro-2,3-dihydro-2,5-methanopyrido[3,4-f][1,4]oxazepin-4(5H)-yl)(4-fluorobicyclo[2.2.1]heptan-1-yl)methanone]"
26,0.023,"O=C(N1C[C@@H]2C[C@H]1c1cncc(C#CCn3ccnc3)c1O2)C12CCC(C(F)(F)F)(CC1)C2 [Compound 2-56, ((2S,5S)-9-(3-(1H-imidazol-1-yl)prop-1-yn-1-yl)-2,3-dihydro-2,5-methanopyrido[3,4-f][1,4]oxazepin-4(5H)-yl)(4-(trifluoromethyl)bicyclo [2.2.1]heptan-1-yl)methanone]"

row,SMILES,IC50 [µM]
1,"N#Cc1cncc2c1OC[C@H]1CC[C@@H]2N1C(=O)C12CCC(C(F)(F)F)(CC1)C2 [Compound 5-2, (3R,6S)-11-(4-(trifluoromethyl)bicyclo[2.2.1]heptane-1-carbonyl)-3,4,5,6-tetrahydro-2H-3,6-epiminooxocino[3,2-c]pyridine-10-carbonitrile]",0.114
